We go through 1 molecule from patent publication US10238658B2, “1-pyrazolyl-3-(4-((2-anilinopyrimidin-4-yl) oxy) napththalen-1-yl) ureas as p38 MAP kinase inhibitors” (Respivert Limited, priority 2011, dated 2019).

One test concerns CXCL1 (KC). As to the kind of experiment: Cigarette smoke model: CXCL1 (KC) in BALF. It is filed as in vivo, mouse. As to conditions: mice. As for the experimental part: A/J mice (males, 5 weeks old) were exposed to cigarette smoke (4% cigarette smoke, diluted with air) for 30 min/day for 11 days using a Tobacco Smoke Inhalation Experiment System for small animals (Model SIS-CS; Sibata Scientific Technology, Tokyo, Japan). Test substances were administered intra-nasally (35 μL of solution in 50% DMSO/PBS) once daily for 3 days after the final cigarette smoke exposure. At 12 hr after the last dosing, each of the animals was anesthetized, the trachea cannulated and bronchoalveolar lavage fluid (BALF) was collected. The numbers of alveolar macrophages and neutrophils were determined by FACS analysis (EPICS® ALTRA II, Beckman Coulter, Inc., Fullerton, Calif., USA) using anti-mouse MOMA2 antibody (macrophage) or anti-mouse 7/4 antibody (neutrophil). BALF was centrifuged and the supernatant was collected. The level of keratinocyte chemoattractant (KC; CXCL1) in BALF was quantitated using a Quentikine® mouse KC ELISA kit (R&D systems, Inc., Minneapolis, Minn., USA).

The next test concerns Balb/c mice. As to the kind of experiment: LPS-induced neutrophil accumulation in mice. It is filed as in vivo, mouse. The method, then: […] At T=0, mice were placed into an exposure chamber and exposed to LPS (7.0 mL, 0.5 mg/mL solution in PBS) for 30 min). After a further 8 hr the animals were anesthetized, their tracheas cannulated and BALF extracted by infusing and then withdrawing from their lungs 1.0 mL of PBS via the tracheal catheter. Total and differential white cell counts in the BALF samples were measured using a Neubaur haemocytometer. Cytospin smears of the BALF samples were prepared by centrifugation at 200 rpm for 5 min at RT and stained using a DiffQuik stain system (Dade Behring). Cells were counted using oil immersion microscopy. Data for neutrophil numbers in BAL are shown as mean ±S.E.M. (standard error of the mean). The percentage inhibition of neutrophil accumulation was calculated for each treatment relative to vehicle treatment,

The test system of a further test is ICAM-1. As to the kind of experiment: Rhinovirus-induced ICAM-1 expression in BEAS2B cells. The settings on record: Homo sapiens, BEAS-2B, read-out: IC50 Values for HRV Stimulated Release/Expression ICAM1 (BEAS2B). It is filed as cell-based. The method, then: Human rhinovirus RV16 was obtained from the American Type Culture Collection (Manassas, Va.). Viral stocks were generated by infecting Hela cells with HRV until 80% of the cells were cytopathic.
BEAS2B cells were infected with HRV at an MOI of 5 and incubated for 2 hr at 33° C. with gentle shaking for to promote absorption. The cells were then washed with PBS, fresh media added and the cells were incubated for a further 72 hr. The supernatant was collected for assay of IL-8 concentrations using a Duoset ELISA development kit (R&D systems, Minneapolis, Minn.).
The level of cell surface ICAM-1 expression was determined by cell-based ELISA. At 72 hr after infection, cells were fixed with 4% formaldehyde in PBS. After quenching endogenous peroxidase by adding 0.1% sodium azide and 1% hydrogen peroxide, wells were washed with wash-buffer (0.05% Tween in PBS: PBS-Tween). […] The ICAM-1 signal was detected by adding substrate and reading at 450 nm with a reference wavelength of 655 nm using a spectrophotometer. The wells were then washed with PBS-Tween and total cell numbers in each well were determined by reading absorbance at 595 nm after Crystal Violet staining and elution by 1% SDS solution. The measured OD450-655 readings were corrected for cell number by dividing with the OD595 reading in each well. […]

A further test relates to TNFα. As to the kind of experiment: LPS-stimulated TNFα production in sputum macrophages from COPD. It is filed as cell-based. The settings on record: Homo sapiens, Macrophage. The method, then:
Patients with COPD were inhaled with a nebulised solution of 3% (w/v) hypertonic saline using an ultrasonic nebuliser (Devilbiss, Carthage, Mo.) with tidal breathing for 5 min. This procedure was repeated a maximum of three times until enough sputum was obtained. The sputum samples were homogenized and mixed vigorously using a vortex mixer in 0.02% v/v dithiothreitol (DTT) solution. The samples were re-suspended in PBS (40 mL) followed by centrifugation at 1500 rpm at 4° C. for 10 min to obtain sputum cell pellets. The pellets were washed twice with PBS (40 mL). The sputum cells were then re-suspended in macrophage serum-free medium (macrophage-SFM, Life technologies, Paisley, UK; to achieve 2×10^6/well in a 24 well plate) containing 20 U/mL penicillin, 0.02 mg/mL streptomycin and 5 μg/mL amphotericin B and seeded on high bound 96-well plate, followed by incubation for 2 hr at 37° C. and at 5% CO2 to allow the macrophages to attach to the bottom of the plate. The cells on the plate were washed with fresh macrophage-SFM (200 μL/well) to remove neutrophils and other contaminated cells. The adherent cells (mainly sputum macrophages) on the plate were used for further analysis. Sputum induction and isolation were conducted in Quintiles Drug Research Unit at Guys Hospital and ethics approval and written informed consent was obtained by Quintiles.
Where appropriate, 1 μL of a solution containing either the test compound or reference article at the stated concentrations or alternatively 1 μL of DMSO as the vehicle control was added to each well (200 μL in media) and the cells were incubated for 2 hr. […] After washing with 200 uL wash buffer per well, the beads were resuspended in sheath fluid (150 μL) and analyzed immediately. The level of each analyte in the supernatant was calculated using Xcel Fit software with a 4 or 5-parameter equation using each standard curve. The inhibitions of each cytokine production were calculated at each concentration by comparison with vehicle control. The IC50 values were determined from concentration-inhibition curves using XL-Fit (idbs, Guildford, UK)

`Cc1ccc(-n2nc(C(C)(C)C)cc2NC(=O)Nc2ccc(Oc3ccnc(Nc4ccccc4)n3)c3ccccc23)cc1` [Example 1, 1-(3-(tert-Butyl)-1-(p-tolyl)-1H-pyrazol-5-yl)-3-(4-(2-(phenylamino)pyrimidin-4-yloxy)naphthalen-1-yl)urea]: the “cigarette smoke induced CXCL1 (KC) production in BALF, effect in words” value in the test with CXCL1 (KC) was “inhibited”. Further, the “% inhibition of neutrophil numbers in BALF” value with Balb/c mice (0.05 mg/mL intra tracheal, pre-dose 2 hr) is 18%; with Balb/c mice (0.2 mg/mL intra tracheal, pre-dose 2 hr) it was 48%; in the test on Balb/c mice (1.0 mg/mL intra tracheal, pre-dose 2 hr), 77%; with Balb/c mice (1.0 mg/mL intra tracheal, pre-dose 8 hr), 48%; in the test with Balb/c mice (1.0 mg/mL intra tracheal, pre-dose 12 hr), 4%. Moreover, in the test with Balb/c mice (mice), the “LPS-induced neutrophil accumulation, effect in words” value was “dose dependent inhibition”. In addition, the IC50 is 0.023 nM in the test with ICAM-1 and 17 nM with TNFα (COPD patients, LPS). Besides, the Emax at 0.1 µg/mL in the test on TNFα (read-out: TNFα E max, sputum macrophage) was determined as 86%.
